From patent US20250382332A1, “NOVEL ALPHA-FACTOR BASED PEPTIDES WITH ANTIFUNGAL ACTIVITY” (INVAIO SCIENCES, INC., priority 2024, published 2025)
Peptide text beside a SMILES is read from it.

Test system: Botrytis cinerea (B05.10)
Assay: Resazurin antifungal assay of 180 alpha-factor peptide variants towards Botrytis (Example 2)
Format: cell-based
Parameters: key to active against Botrytis at 15 μM / active against Botrytis at 10 μM: Peptides that showed greater than 90% inhibition were considered active against Botrytis
Conditions: for Inhibition at 10 μM / Inhibition at 20 μM / Inhibition at 50 μM / Inhibition at 100 μM / Inhibition at 15 μM: % inhibition of fungal growth, Botrytis conidia, resazurin; for Inhibition at 20 μM: peptide 20 μM; for Inhibition at 50 μM: peptide 50 μM; for Inhibition at 100 μM: peptide 100 μM
Outline: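 B. cinerea B05.10 conidia (5000/well) were exposed to peptides at 100, 50, 20, 15 and 10 μM final for 24 h at 20° C. Resazurin was then added and fluorescence read at 570/620 nm. Percent growth inhibition was calculated against conidia-only wells, with four technical replicates.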

CC[C@H](C)[C@H](NC(=O)[C@H](CCC(N)=O)NC(=O)[C@H](CC(C)C)NC(=O)[C@H](Cc1c[nH]c2ccccc12)NC(=O)[C@H](CCCNC(=N)N)NC(=O)[C@@H]1CCCN1)C(=O)N[C@@H](CCCCN)C(=O)N[C@@H](CCCCN)C(=O)NCC(=O)N[C@@H](CCC(N)=O)C(=O)N[C@@H](CO)C(=O)N[C@@H](CCSC)C(=O)N[C@@H](Cc1ccc(O)cc1)C(=O)O [compound 63] (H-PRWLQIKKGQSMY-OH; N-terminus and C-terminus assumed)
Inhibition at 10 μM (peptide 10 μM): <90%
Inhibition at 20 μM: <90%
Inhibition at 50 μM: 100%
Inhibition at 100 μM: 100%

CSCC[C@H](NC(=O)CNC(=O)[C@H](CO)NC(=O)CNC(=O)[C@@H]1CCCN1C(=O)[C@H](CCCCN)NC(=O)[C@H](Cc1ccccc1)NC(=O)[C@H](CCC(N)=O)NC(=O)[C@H](CC(C)C)NC(=O)[C@H](Cc1c[nH]c2ccccc12)NC(=O)[C@H](Cc1c[nH]cn1)NC(=O)[C@@H](N)CCCCN)C(=O)N[C@@H](Cc1ccc(O)cc1)C(=O)O [compound 64] (H-KHWLQFKPGSGMY-OH; N-terminus and C-terminus assumed)
Inhibition at 10 μM (peptide 10 μM): <90%
Inhibition at 15 μM (peptide 15 μM): <90%
Inhibition at 20 μM: 98.09%
Inhibition at 50 μM: 100%
Inhibition at 100 μM: 100%

CSCC[C@H](NC(=O)[C@@H]1CCCN1C(=O)[C@H](CCC(N)=O)NC(=O)CNC(=O)[C@@H](NC(=O)[C@H](CCCNC(=N)N)NC(=O)[C@H](CC(C)C)NC(=O)[C@H](CC(N)=O)NC(=O)[C@@H](NC(=O)[C@H](Cc1c[nH]c2ccccc12)NC(=O)[C@H](CCCCN)NC(=O)[C@@H](N)Cc1c[nH]c2ccccc12)C(C)C)[C@@H](C)O)C(=O)N[C@@H](Cc1ccc(O)cc1)C(=O)O [compound 65] (H-WKWVNLRTGQPMY-OH; N-terminus and C-terminus assumed)
Inhibition at 10 μM (peptide 10 μM): <90%
Inhibition at 20 μM: <90%
Inhibition at 50 μM: 100%
Inhibition at 100 μM: 100%

CC[C@H](C)[C@H](NC(=O)[C@H](Cc1c[nH]c2ccccc12)NC(=O)[C@H](Cc1c[nH]cn1)NC(=O)[C@@H]1CCCN1)C(=O)N[C@@H](CO)C(=O)N[C@@H](CC(C)C)C(=O)N[C@@H](CCCCN)C(=O)N[C@@H](CCCCN)C(=O)NCC(=O)N[C@@H](CCC(N)=O)C(=O)N1CCC[C@H]1C(=O)N[C@@H](CCSC)C(=O)N[C@@H](Cc1ccc(O)cc1)C(=O)O [compound 66] (H-PHWISLKKGQPMY-OH; N-terminus and C-terminus assumed)
Inhibition at 10 μM (peptide 10 μM): <90%
Inhibition at 15 μM (peptide 15 μM): <90%
Inhibition at 20 μM: 96.17%
Inhibition at 50 μM: 100%
Inhibition at 100 μM: 100%

CC[C@H](C)[C@H](NC(=O)[C@H](CCCNC(=N)N)NC(=O)[C@H](CC(C)C)NC(=O)[C@H](CCSC)NC(=O)[C@H](Cc1c[nH]cn1)NC(=O)[C@@H](N)CCCCN)C(=O)N[C@@H](CCCCN)C(=O)N1CCC[C@H]1C(=O)NCC(=O)N[C@@H](CCC(N)=O)C(=O)N1CCC[C@H]1C(=O)N[C@@H](CCSC)C(=O)N[C@@H](Cc1ccc(O)cc1)C(=O)O [compound 67] (H-KHMLRIKPGQPMY-OH; N-terminus and C-terminus assumed)
Inhibition at 10 μM (peptide 10 μM): <90%
Inhibition at 15 μM (peptide 15 μM): <90%
Inhibition at 20 μM: 97.68%
Inhibition at 50 μM: 100%
Inhibition at 100 μM: 100%

CSCC[C@H](NC(=O)[C@@H]1CCCN1C(=O)[C@H](CCC(N)=O)NC(=O)CNC(=O)[C@H](C)NC(=O)[C@H](CCCNC(=N)N)NC(=O)[C@H](CC(C)C)NC(=O)[C@H](CCCNC(=N)N)NC(=O)CNC(=O)[C@H](Cc1c[nH]c2ccccc12)NC(=O)[C@H](Cc1c[nH]cn1)NC(=O)[C@@H](N)CCCCN)C(=O)N[C@@H](Cc1ccc(O)cc1)C(=O)O [compound 68] (H-KHWGRLRAGQPMY-OH; N-terminus and C-terminus assumed)
Inhibition at 10 μM (peptide 10 μM): 97.09%
Inhibition at 15 μM (peptide 15 μM): 99.23%
Inhibition at 20 μM: 100%
Inhibition at 50 μM: 100%
Inhibition at 100 μM: 100%
active against Botrytis at 10 μM (peptide 10 μM): active
active against Botrytis at 15 μM (peptide 15 μM): active
